Laboratory results published in ChEMBL document CHEMBL4420073, “Small molecule inhibitors of MUC1 and methods of identifying the same” (2015).
Each block holds one compound with its values, some of them ahead of it. The source made the active and inactive calls. No cut-off for these calls is given here.

What was measured:
Mucin-1 (Homo sapiens) [1] = molecular target: Mucin-1 (Homo sapiens) (UniProt P15941); test: Inhibition of biotinylated MUC1-CD dimerization (unknown origin) assessed as decrease in oligomer formation at 100 uM by streptavidin-HRP based assay relative to control
Sequence of Mucin-1 (Homo sapiens) (P15941 24-1097 limits assumed): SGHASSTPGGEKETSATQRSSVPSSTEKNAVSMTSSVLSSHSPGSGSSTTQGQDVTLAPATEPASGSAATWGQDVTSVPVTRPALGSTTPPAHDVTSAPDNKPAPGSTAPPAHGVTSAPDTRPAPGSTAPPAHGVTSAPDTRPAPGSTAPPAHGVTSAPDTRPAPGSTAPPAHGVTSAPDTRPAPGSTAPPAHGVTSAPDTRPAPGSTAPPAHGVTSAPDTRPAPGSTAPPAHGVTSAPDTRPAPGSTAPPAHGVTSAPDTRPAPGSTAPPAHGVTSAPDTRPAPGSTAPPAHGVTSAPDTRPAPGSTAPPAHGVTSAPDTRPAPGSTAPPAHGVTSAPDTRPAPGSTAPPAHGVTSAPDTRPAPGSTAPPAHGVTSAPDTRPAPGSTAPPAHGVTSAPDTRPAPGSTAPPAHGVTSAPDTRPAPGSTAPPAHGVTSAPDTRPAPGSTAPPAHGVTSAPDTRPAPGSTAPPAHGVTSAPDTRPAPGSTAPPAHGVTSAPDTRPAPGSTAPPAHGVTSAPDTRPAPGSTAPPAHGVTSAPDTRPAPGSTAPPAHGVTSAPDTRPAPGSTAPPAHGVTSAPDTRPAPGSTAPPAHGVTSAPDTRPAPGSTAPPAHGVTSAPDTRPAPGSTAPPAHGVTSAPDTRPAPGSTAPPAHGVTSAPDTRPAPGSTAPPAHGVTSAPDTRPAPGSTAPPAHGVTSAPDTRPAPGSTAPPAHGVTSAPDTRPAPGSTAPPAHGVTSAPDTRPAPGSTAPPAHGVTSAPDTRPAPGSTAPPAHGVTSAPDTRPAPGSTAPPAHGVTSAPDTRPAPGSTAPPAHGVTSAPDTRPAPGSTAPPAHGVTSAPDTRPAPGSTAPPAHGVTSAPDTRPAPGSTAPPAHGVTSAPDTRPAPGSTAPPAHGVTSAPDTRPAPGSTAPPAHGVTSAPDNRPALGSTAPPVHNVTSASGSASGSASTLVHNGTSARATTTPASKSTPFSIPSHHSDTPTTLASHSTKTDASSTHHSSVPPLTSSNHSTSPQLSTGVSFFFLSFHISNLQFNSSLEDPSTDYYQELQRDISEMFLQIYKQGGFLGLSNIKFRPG
Sequence of Mucin-1 (Homo sapiens) (P15941 1098-1255 limits assumed): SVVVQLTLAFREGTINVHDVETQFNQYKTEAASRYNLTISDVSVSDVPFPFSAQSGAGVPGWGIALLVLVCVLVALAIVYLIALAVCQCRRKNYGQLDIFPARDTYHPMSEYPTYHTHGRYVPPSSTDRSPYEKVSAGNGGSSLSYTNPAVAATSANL

ZR-75-1 = test: Growth inhibition of human ZR-75-1 cells assessed as reduction in cell number incubated up to 2 days by MTS assay; assay type: functional, cell-based
Mucin-1 (Homo sapiens) [2] = molecular target: Mucin-1 (Homo sapiens) (UniProt P15941); test: Inhibition of soluble unbound MUC1-CD dimerization (unknown origin) by immunoblot analysis
Mucin-1 (Homo sapiens) [3] = molecular target: Mucin-1 (Homo sapiens) (UniProt P15941); test: Inhibition of MUC1-CD dimerization (unknown origin) expressed in HEK293 cells assessed as disruption of interaction between Flag-MUC1-CD and GFP-MUC1-CD by coimmunoprecipitation assay; assay type: cell-based
Mucin-1 (Homo sapiens) [4] = molecular target: Mucin-1 (Homo sapiens) (UniProt P15941); test: Inhibition of MUC1-CD dimerization in human MCF10A cells assessed as reduction in MUC1-C levels at 50 to 100 uM incubated for 3 days by immunoblot analysis; assay type: cell-based
MCF-10A [5] = test: Growth inhibition of immortalized human MCF10A cells assessed as reduction in cell number up to 100 uM incubated for 3 days by MTS assay; assay type: functional, cell-based
MCF-10A [6] = test: Induction of apoptosis in immortalized human MCF10A cells assessed as caspase-9 cleavage at 75 uM incubated for 3 days by immunoblot analysis; assay type: functional, cell-based
MCF-10A [7] = test: Induction of cell membrane integrity loss in immortalized human MCF10A cells at 75 uM incubated for 3 days by propidium iodide staining based flow cytometry; assay type: functional
MCF7 [8] = test: Reduction of MUC1 mRNA levels in human MCF7 cells at 75 uM incubated for 3 days by qRT-PCR analysis; assay type: functional, cell-based
Mucin-1 (Homo sapiens) [9] = molecular target: Mucin-1 (Homo sapiens) (UniProt P15941); test: Inhibition of MUC1 nuclear import in human MCF7 cells assessed as decrease in nuclear MUC1-C levels at 75 uM incubated for 3 days by immunoblot analysis; assay type: cell-based
Mucin-1 (Homo sapiens) [10] = molecular target: Mucin-1 (Homo sapiens) (UniProt P15941); test: Inhibition of MUC1 in human MCF7 cells assessed as decrease in MUC1 protein level in whole cell lysates at 75 uM incubated for 3 days by immunoblot analysis; assay type: subcellular; settings: Lysate
MCF7 [11] = test: Induction of cell membrane integrity loss in human MCF7 cells assessed as PI uptake level at 75 uM incubated for 3 days by propidium iodide staining based flow cytometry (reference value: 22%); assay type: functional
MCF-10A [12] = test: Induction of cell membrane integrity loss in immortalized human MCF10A cells assessed as PI uptake level at 50 uM incubated for 3 days by propidium iodide staining based flow cytometry (reference value: 23%); assay type: functional
MCF-10A [13] = test: Induction of cell membrane integrity loss in immortalized human MCF10A cells assessed as PI uptake level at 75 uM incubated for 3 days by propidium iodide staining based flow cytometry (reference value: 23%); assay type: functional

Structure (SMILES): CCCCc1cc2c(=O)c(-c3cc[nH]n3)c(C)oc2cc1O
inhibition (Mucin-1 (Homo sapiens) [1]): > 50%

Structure (SMILES): O=c1c(O)c(-c2ccc(O)cc2)oc2cc(O)cc(O)c12
growth inhibition (GI) (ZR-75-1): Active

Structure (SMILES): O=c1cc(-c2ccccc2)oc2cc(O)c(O)c(O)c12 [BAICALEIN]
inhibition (Mucin-1 (Homo sapiens) [1]): inactive
inhibition (Mucin-1 (Homo sapiens) [2]): inactive
inhibition (Mucin-1 (Homo sapiens) [3]): inactive
inhibition (Mucin-1 (Homo sapiens) [4]): inactive
growth inhibition (GI) (MCF-10A [5]): inactive
Activity (MCF-10A [6]): inactive
Activity (MCF-10A [7]): inactive
Activity (MCF7 [8]): inactive
inhibition (Mucin-1 (Homo sapiens) [9]): inactive
inhibition (Mucin-1 (Homo sapiens) [10]): inactive
Activity (MCF7 [11]): 19%
Activity (MCF-10A [12]): 27%
Activity (MCF-10A [13]): 28%

More lines, now with the values ahead:

inhibition (Mucin-1 (Homo sapiens) [1]): > 50%
Structure (SMILES): CCOC(=O)c1oc2cc(OCc3ccc(C(=O)OC)o3)ccc2c(=O)c1-c1ccc(C(=O)OC)o1

inhibition (Mucin-1 (Homo sapiens) [1]): > 50%
Structure (SMILES): CC(=O)C(C)Oc1ccc2c(-c3ccccc3)cc(=O)oc2c1 (stereo not drawn)

inhibition (Mucin-1 (Homo sapiens) [1]): > 50%
Structure (SMILES): COc1ccc2c(=O)c(-c3cscn3)c(C(F)(F)F)oc2c1
